Read-outs that look alike come from different tables or passages of the source.
How the values were obtained:
[1] = test system: spinal nerve ligated rats; test: Rat spinal nerve ligation (SNL) model of neuropathic pain, paw withdrawal threshold; type: in vivo; settings: read-out: SNL MPE
From the text: Rat Spinal Nerve Ligation (SNL) Model of Neuropathic Pain.
The male Sprague Dawley rats (Charles River Laboratories, Wilmington, Mass.), weighing 150-175 g at the time of surgery, were placed under isoflurane anesthesia and a 1.5 cm incision was made dorsal to the lumbosacral plexus. The paraspinal muscles (left side) were separated from the spinous processes, the left L5 and L6 spinal nerves isolated, and tightly ligated with 5-0 silk suture distal to the dorsal root ganglion. Care was taken to avoid ligating the L4 spinal nerve. Following spinal nerve ligation, a minimum of 7 days of recovery and no more than 3 weeks was allowed prior to the behavioral testing (mechanical sensitivity). Only rats with threshold scores ≦4.5 g were considered allodynic and utilized in pharmacological experiments.
Mechanical sensitivity was measured using calibrated von Frey filaments (Stoelting, Wood Dale, Ill.). […] The von Frey filaments were presented perpendicularly to the plantar surface of the selected hind paw, and then held in this position for approximately 8 seconds with enough force to cause a slight bend in the filament. Positive responses included an abrupt withdrawal of the hind paw from the stimulus, or flinching behavior immediately following removal of the stimulus. […] A percent maximal possible effect (% MPE) of testing compound was calculated according to the formula: (Log [compound−treated threshold]−Log [vehicle−treated threshold])/(Log [maximum threshold]−Log [vehicle−treated threshold])×100%, where the maximum threshold was equal to 15 g.
The animals were housed in Association for Assessment and Accreditation of Laboratory Animal Care (AAALAC) approved facilities at AbbVie Inc. in a temperature-regulated environment under a controlled 12-hour light-dark cycle, with lights on at 6:00 a.m. Food and water were available ad libitum at all times except during testing. All testing was done following procedures outlined in protocols approved by AbbVie Inc.s' Institutional Animal Care and Use Committee.

[2] = test system: osteoarthritic rats; test: Osteoarthritic (OA) pain induced by sodium monoiodoacetate (MIA), hind limb grip force; type: in vivo, rat; settings: for inhibition in vivo at 30 mg/kg / inhibition in vivo at 10 mg/kg: Rattus norvegicus, 480 h, read-out: OA MPE; for inhibition in vivo at 10 mg/kg: OA dose 10 mg/kg
Outline: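 Activity-induced pain was read as maximum compressive hind limb grip force, two sequential trials normalized to body weight, 20 days after intra-articular MIA (3 mg/rat) in male Sprague Dawley rats. Randomized, blinded dosing; effect expressed as return toward naïve-animal response relative to vehicle.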

[3] = target: recombinant human Nav1.8 (Homo sapiens (Human), UniProt Q9Y5Y9); test: FRET-based membrane potential assay, recombinant human sodium channel Nav1.8; type: cell-based
[4] = target: recombinant human Nav1.7 (Homo sapiens (Human), UniProt Q15858); test: FRET-based membrane potential assay, recombinant human sodium channel Nav1.7; type: cell-based; settings: read-out: FRET-Membrane Potential Nav1.7 IC50
Outline: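 Channel activation used veratridine at its EC80, set by a dilution curve each experiment, together with Leiurus scorpion venom, added 3 min after compound. Membrane-potential ratio signals from FLIPR Tetra in HEPES-buffered HBSS were fitted to a four-parameter Hill equation for percent inhibition and IC50.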

[5] = SNL dose 100 mg/kg, rat, von Frey paw withdrawal threshold
[6] = OA dose 30 mg/kg, rat, 20 days following MIA injection, hind limb grip force
[7] = HEK293 cells stably expressing recombinant human Nav1.8, veratridine + scorpion venom depolarization
[8] = HEK293 cells stably expressing recombinant human Nav1.7, veratridine + scorpion venom depolarization
[9] = rat, 20 days following MIA injection, hind limb grip force

Sequence of recombinant human Nav1.7 (Q15858 whole entry): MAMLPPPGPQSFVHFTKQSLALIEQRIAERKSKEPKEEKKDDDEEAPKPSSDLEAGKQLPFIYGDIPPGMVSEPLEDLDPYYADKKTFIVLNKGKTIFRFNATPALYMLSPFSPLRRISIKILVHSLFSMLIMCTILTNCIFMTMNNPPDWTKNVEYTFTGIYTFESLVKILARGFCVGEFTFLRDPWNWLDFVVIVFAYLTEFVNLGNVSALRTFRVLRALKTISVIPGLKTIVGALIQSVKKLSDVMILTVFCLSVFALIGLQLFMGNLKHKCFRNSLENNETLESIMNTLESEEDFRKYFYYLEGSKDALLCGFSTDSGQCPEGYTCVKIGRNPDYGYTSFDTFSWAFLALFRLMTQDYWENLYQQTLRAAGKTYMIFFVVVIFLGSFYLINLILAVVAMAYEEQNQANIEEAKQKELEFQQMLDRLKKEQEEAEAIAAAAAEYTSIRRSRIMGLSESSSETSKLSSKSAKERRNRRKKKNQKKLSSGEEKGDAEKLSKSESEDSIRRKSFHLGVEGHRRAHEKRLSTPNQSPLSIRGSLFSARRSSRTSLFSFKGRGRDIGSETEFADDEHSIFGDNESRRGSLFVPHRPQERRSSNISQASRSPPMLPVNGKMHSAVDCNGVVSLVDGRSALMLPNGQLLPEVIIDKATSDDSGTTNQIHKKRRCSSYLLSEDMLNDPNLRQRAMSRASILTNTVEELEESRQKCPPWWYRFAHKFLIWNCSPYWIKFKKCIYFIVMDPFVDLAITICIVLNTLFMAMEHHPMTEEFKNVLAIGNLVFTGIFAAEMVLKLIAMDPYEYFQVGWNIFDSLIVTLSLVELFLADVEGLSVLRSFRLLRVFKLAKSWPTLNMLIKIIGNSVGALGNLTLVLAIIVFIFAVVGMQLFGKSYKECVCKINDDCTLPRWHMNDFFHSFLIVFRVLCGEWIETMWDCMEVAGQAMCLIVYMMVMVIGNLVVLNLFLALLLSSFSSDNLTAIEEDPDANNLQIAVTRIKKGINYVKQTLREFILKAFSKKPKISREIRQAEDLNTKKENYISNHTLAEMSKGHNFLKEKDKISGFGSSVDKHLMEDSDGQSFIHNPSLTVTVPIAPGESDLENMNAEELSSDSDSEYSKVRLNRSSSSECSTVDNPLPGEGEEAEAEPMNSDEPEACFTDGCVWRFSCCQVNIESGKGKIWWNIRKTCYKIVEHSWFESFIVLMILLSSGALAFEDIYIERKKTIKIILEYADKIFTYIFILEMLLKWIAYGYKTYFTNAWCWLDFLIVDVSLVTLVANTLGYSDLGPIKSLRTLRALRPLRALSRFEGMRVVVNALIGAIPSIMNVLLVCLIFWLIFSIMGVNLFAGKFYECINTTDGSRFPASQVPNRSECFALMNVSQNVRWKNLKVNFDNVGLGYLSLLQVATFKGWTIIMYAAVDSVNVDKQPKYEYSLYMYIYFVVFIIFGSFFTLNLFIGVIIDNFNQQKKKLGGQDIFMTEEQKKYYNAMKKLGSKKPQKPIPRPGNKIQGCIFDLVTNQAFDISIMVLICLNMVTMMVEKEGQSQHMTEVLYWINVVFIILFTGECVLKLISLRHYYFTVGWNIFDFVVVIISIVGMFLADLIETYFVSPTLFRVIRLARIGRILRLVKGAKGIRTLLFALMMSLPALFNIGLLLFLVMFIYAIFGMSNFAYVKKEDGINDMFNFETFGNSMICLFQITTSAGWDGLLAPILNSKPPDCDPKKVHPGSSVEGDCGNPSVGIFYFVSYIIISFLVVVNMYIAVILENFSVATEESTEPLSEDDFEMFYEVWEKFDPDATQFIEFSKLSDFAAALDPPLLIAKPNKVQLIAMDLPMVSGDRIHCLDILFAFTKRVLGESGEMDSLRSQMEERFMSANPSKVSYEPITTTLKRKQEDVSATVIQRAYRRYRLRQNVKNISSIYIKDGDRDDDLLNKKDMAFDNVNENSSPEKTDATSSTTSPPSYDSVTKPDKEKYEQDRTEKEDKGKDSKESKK
Sequence of recombinant human Nav1.8 (Q9Y5Y9 whole entry): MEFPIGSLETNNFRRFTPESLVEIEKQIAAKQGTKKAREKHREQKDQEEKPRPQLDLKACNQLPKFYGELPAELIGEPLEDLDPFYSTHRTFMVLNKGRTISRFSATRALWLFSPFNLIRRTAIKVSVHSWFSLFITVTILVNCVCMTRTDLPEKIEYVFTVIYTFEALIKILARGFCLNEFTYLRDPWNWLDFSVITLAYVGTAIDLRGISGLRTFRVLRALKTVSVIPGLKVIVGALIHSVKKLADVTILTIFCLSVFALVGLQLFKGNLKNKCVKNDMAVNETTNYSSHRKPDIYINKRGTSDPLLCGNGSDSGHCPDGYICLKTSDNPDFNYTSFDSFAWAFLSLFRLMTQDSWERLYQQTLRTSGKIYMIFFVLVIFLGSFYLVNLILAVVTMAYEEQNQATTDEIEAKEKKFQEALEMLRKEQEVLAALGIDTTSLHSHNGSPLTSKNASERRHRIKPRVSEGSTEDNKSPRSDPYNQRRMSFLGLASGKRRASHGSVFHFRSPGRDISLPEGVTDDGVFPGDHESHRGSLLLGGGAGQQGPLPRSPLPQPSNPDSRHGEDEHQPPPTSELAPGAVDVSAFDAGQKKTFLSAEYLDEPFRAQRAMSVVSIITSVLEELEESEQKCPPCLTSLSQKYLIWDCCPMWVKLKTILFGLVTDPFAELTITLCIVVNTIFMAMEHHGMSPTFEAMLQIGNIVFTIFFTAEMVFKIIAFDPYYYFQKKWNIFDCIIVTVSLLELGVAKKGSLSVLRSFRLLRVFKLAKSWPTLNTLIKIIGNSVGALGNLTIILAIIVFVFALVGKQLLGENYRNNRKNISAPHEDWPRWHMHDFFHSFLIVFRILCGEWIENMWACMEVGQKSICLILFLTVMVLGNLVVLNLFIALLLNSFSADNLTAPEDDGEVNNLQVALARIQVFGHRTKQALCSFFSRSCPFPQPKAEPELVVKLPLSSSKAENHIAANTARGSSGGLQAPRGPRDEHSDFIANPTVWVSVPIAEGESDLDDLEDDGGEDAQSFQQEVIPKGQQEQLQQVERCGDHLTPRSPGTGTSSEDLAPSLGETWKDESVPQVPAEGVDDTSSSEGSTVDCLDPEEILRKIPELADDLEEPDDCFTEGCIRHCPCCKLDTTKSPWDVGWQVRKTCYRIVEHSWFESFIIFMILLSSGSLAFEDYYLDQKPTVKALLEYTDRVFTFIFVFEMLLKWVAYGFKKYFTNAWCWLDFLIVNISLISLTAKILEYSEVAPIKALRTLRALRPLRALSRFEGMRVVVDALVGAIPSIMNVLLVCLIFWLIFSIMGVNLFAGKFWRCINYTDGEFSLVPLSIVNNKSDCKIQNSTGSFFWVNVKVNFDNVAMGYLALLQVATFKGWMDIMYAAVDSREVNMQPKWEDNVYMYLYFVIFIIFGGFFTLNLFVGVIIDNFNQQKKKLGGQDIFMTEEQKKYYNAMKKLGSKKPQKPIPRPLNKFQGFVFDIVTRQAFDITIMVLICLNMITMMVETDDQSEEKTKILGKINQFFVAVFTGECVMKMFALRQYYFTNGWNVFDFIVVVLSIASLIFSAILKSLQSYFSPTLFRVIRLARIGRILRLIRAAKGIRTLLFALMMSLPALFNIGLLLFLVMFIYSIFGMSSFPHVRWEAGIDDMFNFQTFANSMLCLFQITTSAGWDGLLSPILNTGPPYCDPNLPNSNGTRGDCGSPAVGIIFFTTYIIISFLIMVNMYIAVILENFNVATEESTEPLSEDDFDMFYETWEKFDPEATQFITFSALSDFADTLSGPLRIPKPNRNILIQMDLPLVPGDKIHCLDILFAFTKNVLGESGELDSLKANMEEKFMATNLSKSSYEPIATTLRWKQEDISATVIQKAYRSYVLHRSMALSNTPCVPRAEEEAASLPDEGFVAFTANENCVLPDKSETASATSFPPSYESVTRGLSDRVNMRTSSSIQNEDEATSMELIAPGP

Compound | inhibition in vivo at 30 mg/kg [2, 6] | IC50 [3, 7] | IC50 [4, 8] | inhibition in vivo at 10 mg/kg [2, 9] | also measured
O=C(c1ccc2cc(Oc3ccc(C(F)(F)F)cn3)ccc2n1)N1CCNCC1 [Example 1, piperazin-1-yl(6-{[5-(trifluoromethyl)pyridin-2-yl]oxy}quinolin-2-yl)methanone] | 64% | – | – | – | inhibition in vivo at 100 mg/kg [1, 5]: 49%
O=C(c1ccc2cc(Oc3ccc(C(F)(F)F)cn3)ccc2n1)N1CCCC1 [Example 10, pyrrolidin-1-yl(6-{[5-(trifluoromethyl)pyridin-2-yl]oxy}quinolin-2-yl)methanone] | – | – | – | – | inhibition in vivo at 100 mg/kg ([1]; Rattus norvegicus): 35%; inhibition in vivo at 30 mg/kg [2]: 48%
O=C(c1ccc2cc(Oc3ccc(C(F)F)cn3)ccc2n1)N1CCNCC1 [Example 14, (6-{[5-(difluoromethyl)pyridin-2-yl]oxy}quinolin-2-yl)(piperazin-1-yl)methanone] | 81% | – | – | – | inhibition in vivo at 100 mg/kg [1, 5]: 44%
N[C@@H]1[C@H]2CN(C(=O)c3ccc4cc(Oc5ccc(C(F)F)cn5)ccc4n3)C[C@@H]12 [Example 49, meso-[(1R,5S,6s)-6-amino-3-azabicyclo[3.1.0]hex-3-yl](6-{[5-(difluoromethyl)pyridin-2-yl]oxy}quinolin-2-yl)methanone] | – | 0.702 µM | 2.27 µM | – | OA MPE [2, 6]: 58%
O=C(c1ccc2cc(Oc3ccc(C(F)(F)F)cn3)ccc2n1)N1CCN2CC(F)(F)C[C@H]2C1 [Example 53, [(8aS)-7,7-difluorohexahydropyrrolo[1,2-a]pyrazin-2(1H)-yl](6-{[5-(trifluoromethyl)pyridin-2-yl]oxy}quinolin-2-yl)methanone] | 70% | 11 µM | 3.26 µM | – | –
CC[C@@H]1CN(C(=O)c2ccc3cc(Oc4ccc(C(F)F)cn4)ccc3n2)CCN1 [Example 55, (6-{[5-(difluoromethyl)pyridin-2-yl]oxy}quinolin-2-yl)[(3R)-3-ethylpiperazin-1-yl]methanone] | – | – | 0.594 µM | 42% | IC50 [3]: 2.08 µM
COCCNC(=O)c1ccc2cc(Oc3ccc(C(F)(F)F)nc3)ccc2n1 [Example 56, N-(2-methoxyethyl)-6-{[6-(trifluoromethyl)pyridin-3-yl]oxy}quinoline-2-carboxamide] | – | 1.49 µM | 3.01 µM | 43% | –
O=C(c1ccc2cc(Oc3ccc(OC(F)F)cn3)ccc2n1)N1CCNCC1 [Example 57, (6-{[5-(difluoromethoxy)pyridin-2-yl]oxy}quinolin-2-yl)(piperazin-1-yl)methanone] | 53% | 0.87 µM | 3.19 µM | – | –
O=C1C[C@@H](NC(=O)c2ccc3cc(Oc4ccc(C(F)(F)F)cn4)ccc3n2)CN1 [Example 58, N-[(3R)-5-oxopyrrolidin-3-yl]-6-{[5-(trifluoromethyl)pyridin-2-yl]oxy}quinoline-2-carboxamide] | 64% | 2.84 µM | 1.03 µM | – | –
CCN1CCC(N(CC)C(=O)c2ccc3cc(Oc4ccc(C(F)(F)F)cn4)ccc3n2)CC1=O (stereo not drawn) [Example 61, N-ethyl-N-(1-ethyl-2-oxopiperidin-4-yl)-6-{[5-(trifluoromethyl)pyridin-2-yl]oxy}quinoline-2-carboxamide] | – | 1.14 µM | 0.556 µM | 61% | –
C[C@@H]1CN(C(=O)c2ccc3cc(Oc4ccc(C(F)(F)F)nc4)ccc3n2)CCN1 [Example 62, [(3R)-3-methylpiperazin-1-yl](6-{[6-(trifluoromethyl)pyridin-3-yl]oxy}quinolin-2-yl)methanone] | – | 0.12 µM | 0.5 µM | -1% | –
COC[C@H]1CN(C(=O)c2ccc3cc(Oc4ccc(C(F)(F)F)nc4)ccc3n2)CCN1 [Example 63, [(3R)-3-(methoxymethyl)piperazin-1-yl](6-{[6-(trifluoromethyl)pyridin-3-yl]oxy}quinolin-2-yl)methanone] | – | – | 0.976 µM | 15% | IC50 [3]: 1.16 µM
COC[C@@H]1CN(C(=O)c2ccc3cc(Oc4ccc(C(F)(F)F)nc4)ccc3n2)CCN1 [Example 64, [(3S)-3-(methoxymethyl)piperazin-1-yl](6-{[6-(trifluoromethyl)pyridin-3-yl]oxy}quinolin-2-yl)methanone] | – | – | 0.382 µM | 29% | IC50 [3]: 0.491 µM
CS(=O)(=O)CCCNC(=O)c1ccc2cc(Oc3ccc(C(F)(F)F)cn3)ccc2n1 [Example 65, N-[3-(methylsulfonyl)propyl]-6-{[5-(trifluoromethyl)pyridin-2-yl]oxy}quinoline-2-carboxamide] | 63% | 4.23 µM | – | – | IC50 [4]: 2.25 µM
NC1CN(C(=O)c2ccc3cc(Oc4ccc(C(F)(F)F)nc4)ccc3n2)C1 [Example 66, (3-amino azetidin-1-yl)(6-{[6-(trifluoromethyl)pyridin-3-yl]oxy}quinolin-2-yl)methanone] | 52% | – | 0.883 µM | – | IC50 [3]: 1.18 µM
CC1CN(C(=O)c2ccc3cc(Oc4ccc(C(F)F)cn4)ccc3n2)CC(C)N1 (stereo not drawn) [Example 67, (6-{[5-(difluoromethyl)pyridin-2-yl]oxy}quinolin-2-yl)(3,5-dimethylpiperazin-1-yl)methanone] | – | 1.75 µM | 1.28 µM | 43% | –
C[C@@H]1CN(C(=O)c2ccc3cc(Oc4ccc(C(F)F)cn4)ccc3n2)CCN1 [Example 68, (6-{[5-(difluoromethyl)pyridin-2-yl]oxy}quinolin-2-yl) [(3R)-3-methylpiperazin-1-yl]methanone] | – | 1.89 µM | 1.21 µM | 52% | –
COC[C@@H]1CN(C(=O)c2ccc3cc(Oc4ccc(C(F)F)cn4)ccc3n2)CCN1 [Example 69, (6-{[5-(difluoromethyl)pyridin-2-yl]oxy}quinolin-2-yl)[(3S)-3-(methoxymethyl)piperazin-1-yl]methanone] | – | 2.32 µM | 0.895 µM | 2% | –
O=C(c1ccc2cc(Oc3ccc(C(F)(F)F)cn3)ccc2n1)N1CC(N2CC[C@@H](F)C2)C1 [Example 70, {3-[(3R)-3-fluoropyrrolidin-1-yl]azetidin-1-yl}(6-{[5-(trifluoromethyl)pyridin-2-yl]oxy}quinolin-2-yl)methanone] | – | – | – | 23% | IC50 [3]: 0.821 µM; IC50 [4]: 1.25 µM
COC[C@H]1CN(C(=O)c2ccc3cc(Oc4ccc(C(F)F)cn4)ccc3n2)CCN1 [Example 71, (6-{[5-(difluoromethyl)pyridin-2-yl]oxy}quinolin-2-yl) [(3R)-3-(methoxymethyl)piperazin-1-yl]methanone] | – | 1.64 µM | 1.81 µM | 33% | –
O=C(c1ccc2cc(Oc3ccc(OC(F)(F)F)cn3)ccc2n1)N1CC[C@@H](F)C1 [Example 301, [(3R)-3-fluoropyrrolidin-1-yl](6-{[5-(trifluoromethoxy)pyridin-2-yl]oxy}quinolin-2-yl)methanone] | 58% | 1.4 µM | 3.12 µM | – | –
O=C(NCC(F)(F)F)c1ccc2cc(Oc3ccc(C(F)F)cn3)ccc2n1 [Example 436, 6-{[5-(difluoromethyl)pyridin-2-yl]oxy}-N-(2,2,2-trifluoroethyl)quinoline-2-carboxamide] | 51% | 3.42 µM | 1.74 µM | – | –
O=C(c1ccc2cc(Oc3ccc(C(F)(F)F)cn3)ccc2n1)N1CCC12COC2 [Example 505, 6-oxa-1-azaspiro[3.3]hept-1-yl(6-{[5-(trifluoromethyl)pyridin-2-yl]oxy}quinolin-2-yl)methanone] | – | 2.3 µM | 4.94 µM | – | inhibition in vivo at 30 mg/kg [2]: 52%
O=C(c1ccc2cc(Oc3ccc(C(F)(F)F)cn3)ccc2n1)N1CC(OCC(F)F)C1 [Example 619, [3-(2,2-difluoroethoxy)azetidin-1-yl](6-{[5-(trifluoromethyl)pyridin-2-yl]oxy}quinolin-2-yl)methanone] | 53% | 2.91 µM | 2.88 µM | – | –

— patent publication US9452986B2, “6-heteroaryloxy- or 6-aryloxy-quinoline-2-carboxamides and method of use” (AbbVie Inc., priority 2014, dated 2016)
